Source: patent US20230322715A1, “BROAD SPECTRUM ANTI-CANCER COMPOUNDS” (The Regents of the University of California, priority 2019, published 2023)
Values joined by “and” are separate entries in the source; they are usually repeats but may differ in a detail not shown here. Identical values can stand only once. Like-named read-outs stand apart in the source and are kept apart here.

Legend:
FTO = FTO (Homo sapiens (Human), UniProt Q9C0B1); assay: Fluorescence enzymatic inhibition assay (m6A7-Broccoli RNA / DFHBI-1T) against FTO; format: biochemical; settings: for selectivity between FTO and ALKBH5: comparison of enzymatic IC50 values; for precipitation in assay buffer: dose response could not be determined
Chain of FTO (Q9C0B1 whole entry): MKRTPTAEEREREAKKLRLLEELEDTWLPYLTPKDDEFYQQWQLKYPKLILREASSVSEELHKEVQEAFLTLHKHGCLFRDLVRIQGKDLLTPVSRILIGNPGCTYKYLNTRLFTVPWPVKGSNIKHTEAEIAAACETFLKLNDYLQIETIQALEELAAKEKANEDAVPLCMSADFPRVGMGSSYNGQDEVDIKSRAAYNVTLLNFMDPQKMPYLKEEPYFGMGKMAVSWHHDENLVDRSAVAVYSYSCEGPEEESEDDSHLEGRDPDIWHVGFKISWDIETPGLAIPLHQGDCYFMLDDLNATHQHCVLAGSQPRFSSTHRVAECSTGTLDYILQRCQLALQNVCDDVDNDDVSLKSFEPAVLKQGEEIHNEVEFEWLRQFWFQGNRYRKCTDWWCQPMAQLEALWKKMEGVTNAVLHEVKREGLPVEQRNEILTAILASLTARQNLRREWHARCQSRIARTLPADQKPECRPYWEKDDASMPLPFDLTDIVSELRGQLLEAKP
Protocol: In order to determine their efficacy as FTO inhibitors, the compounds were screened by a fluorescence enzymatic inhibition assay developed previously by the Jaffrey lab.^44 Briefly, a nonfluorescent methylated RNA substrate termed “m6A7-Broccoli” is incubated with FTO in the presence of 2-oxoglutarate (300 μM), (NH4)2Fe(SO4)2·6H2O (300 μM), and L-ascorbate (2 mM) for 2 hours at room temperature in reaction buffer (50 mM NaHEPES, pH 6).
(§1) Inhibitors were added in concentrations ranging from 0.008-40 μM; all inhibitors were dissolved in DMSO and added to a final concentration of 0.2% DMSO. […] After incubation at room temperature for 2 hours, the plates were left at 4° C. overnight (16 hours) to allow DFHBI-1T to bind to A7-Broccoli RNA. […] Sigmoidal dose-response curves were fitted in GraphPad Prism 6. All assays were performed in triplicate, with additional repetitions added as necessary.

ALKBH5 = ALKBH5 (Homo sapiens (Human), UniProt Q6P6C2); assay: Fluorescence enzymatic inhibition assay (m6A7-Broccoli RNA / DFHBI-1T) against ALKBH5; format: biochemical
Chain of ALKBH5 (Q6P6C2 whole entry): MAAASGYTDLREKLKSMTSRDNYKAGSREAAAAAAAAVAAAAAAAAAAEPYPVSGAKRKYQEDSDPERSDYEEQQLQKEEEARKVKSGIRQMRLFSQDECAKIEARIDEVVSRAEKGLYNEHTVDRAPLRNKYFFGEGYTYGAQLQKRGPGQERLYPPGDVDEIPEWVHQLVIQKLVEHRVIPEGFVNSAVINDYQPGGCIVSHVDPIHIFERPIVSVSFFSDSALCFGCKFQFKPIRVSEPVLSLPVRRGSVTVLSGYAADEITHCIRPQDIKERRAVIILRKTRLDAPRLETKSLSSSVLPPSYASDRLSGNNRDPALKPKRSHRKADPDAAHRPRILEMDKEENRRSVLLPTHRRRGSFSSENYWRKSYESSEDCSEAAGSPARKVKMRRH
Protocol: as §1

YTHDF1 = YTHDF1 (Homo sapiens (Human), UniProt Q9BYJ9); assay: In vitro FRET assay for binding affinities of YTH inhibitors, YTHDF1
Chain of YTHDF1 (Q9BYJ9 whole entry): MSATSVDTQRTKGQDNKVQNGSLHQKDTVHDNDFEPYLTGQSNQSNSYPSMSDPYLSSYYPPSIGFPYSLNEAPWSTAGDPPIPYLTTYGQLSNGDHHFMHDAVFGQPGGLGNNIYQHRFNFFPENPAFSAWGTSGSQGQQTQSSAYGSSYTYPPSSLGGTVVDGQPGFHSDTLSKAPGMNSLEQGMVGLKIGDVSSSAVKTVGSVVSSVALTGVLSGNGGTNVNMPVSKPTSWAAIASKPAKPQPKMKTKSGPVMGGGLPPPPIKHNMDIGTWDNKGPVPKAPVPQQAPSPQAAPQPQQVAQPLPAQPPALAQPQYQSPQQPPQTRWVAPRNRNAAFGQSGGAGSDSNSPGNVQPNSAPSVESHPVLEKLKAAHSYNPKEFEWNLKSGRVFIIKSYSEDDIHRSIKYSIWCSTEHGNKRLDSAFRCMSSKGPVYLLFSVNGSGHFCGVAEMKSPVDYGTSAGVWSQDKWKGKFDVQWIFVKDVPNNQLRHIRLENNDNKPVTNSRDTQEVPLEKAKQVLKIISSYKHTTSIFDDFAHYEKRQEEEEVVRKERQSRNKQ
Excerpt: (§2) FIG. 8-2 depicts possible design and synthesis of compound libraries. In Vitro FRET assay development could yield a high throughput FRET assay to determine binding affinities for potential YHT inhibitors against YTHDF1, YTHDF2, YTHDF3, or other similar proteins.

YTHDF2 = YTHDF2 (Homo sapiens (Human), UniProt Q9Y5A9); assay: In vitro FRET assay for binding affinities of YTH inhibitors, YTHDF2
Chain of YTHDF2 (Q9Y5A9 whole entry): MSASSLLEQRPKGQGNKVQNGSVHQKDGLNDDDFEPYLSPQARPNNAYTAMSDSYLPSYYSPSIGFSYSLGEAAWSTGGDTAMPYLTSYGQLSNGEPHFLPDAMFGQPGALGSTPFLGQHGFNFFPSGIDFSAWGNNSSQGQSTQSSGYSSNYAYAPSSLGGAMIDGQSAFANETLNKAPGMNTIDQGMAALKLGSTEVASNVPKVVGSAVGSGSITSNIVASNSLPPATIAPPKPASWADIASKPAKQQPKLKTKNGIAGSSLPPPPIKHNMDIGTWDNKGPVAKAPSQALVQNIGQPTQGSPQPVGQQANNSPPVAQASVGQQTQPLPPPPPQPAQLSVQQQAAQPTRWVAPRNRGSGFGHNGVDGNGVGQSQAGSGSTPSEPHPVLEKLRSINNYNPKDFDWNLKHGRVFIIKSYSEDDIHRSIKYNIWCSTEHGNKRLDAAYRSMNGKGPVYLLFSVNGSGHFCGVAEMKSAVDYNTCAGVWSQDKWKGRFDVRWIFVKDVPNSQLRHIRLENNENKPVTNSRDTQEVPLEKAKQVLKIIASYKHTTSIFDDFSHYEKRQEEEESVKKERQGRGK
Excerpt: as §2

[1] = elogD / log D determination
[2] = m6A7-Broccoli fluorescence assay, 0.250 μM FTO, inhibitor up to 40 μM, triplicate, read-out: Enzymatic IC50 FTO
[3] = m6A7-Broccoli fluorescence assay, 0.250 μM ALKBH5, read-out: Enzymatic IC50 ALKBH5
[4] = Ki values for YTH library against YTHDF2, read-out: Ki
[5] = Table 700 compounds, read-out: Enzymatic IC50 FTO
[6] = Table 700 compounds, read-out: Enzymatic IC50 ALKBH5
[7] = Table 800 compounds, read-out: FTO IC50
[8] = Table 800 compounds, read-out: ALKBH5 IC50

melting point	Ki (YTHDF1; read-out: Ki (pM) YTHDF1)	Ki (YTHDF1; read-out: Ki YTHDF1)	Ki (YTHDF2; [4])	Ki (YTHDF2; read-out: Ki (pM) YTHDF2)	Ki (YTHDF2; read-out: Ki YTHDF2)	Structure (SMILES)	further results
230 °C	–	–	–	–	–	COCCNc1ncc(-c2ccc3nc(C)ccc3c2)cn1 [FTO-19, N-(2-methoxyethyl)-5-(2-methylquinolin-6-yl)pyrimidin-2-amine]	selectivity between FTO and ALKBH5 (FTO): equivalent inhibitors towards both demethylases; IC50 (FTO; [2]): 25200 nM; IC50 (ALKBH5; [3]): 53500 nM
230 °C	–	–	–	–	–	COCCNc1ncc(-c2ccc3cc(O)ccc3c2)cn1 [FTO-16, 6-(2-((2-methoxyethyl)amino)pyrimidin-5-yl)naphthalen-2-ol]	IC50 (FTO; [2]): 46500 nM
230 °C	–	–	–	–	–	Cc1ccc2cc(-c3cnc(N)nc3)ccc2n1 [FTO-14, 5-(2-methylquinolin-6-yl)pyrimidin-2-amine]	IC50 (FTO; [2]): 59600 nM
230 °C	–	–	–	–	–	COCCNc1ncc(-c2ccc3ccc(O)cc3c2)cn1 [FTO-17, 7-(2-((2-methoxyethyl)amino)pyrimidin-5-yl)naphthalen-2-ol]	IC50 (FTO; [2]): 51900 nM
230 °C	–	–	–	–	–	Nc1ncc(-c2cccc(OCc3ccccc3)c2)cn1 [FTO-13, 5-(3-(benzyloxy)phenyl)pyrimidin-2-amine]	selectivity between FTO and ALKBH5 (FTO): distinct preference towards ALKBH5 over FTO; IC50 (FTO; [2]): 36700 nM; IC50 (ALKBH5; [3]): 14900 nM
230 °C	–	–	–	–	–	Cc1ccc2cc(-c3cncnc3)ccc2n1 [FTO-7, 2-methyl-6-(pyrimidin-5-yl)quinoline]	IC50 (FTO; [2]): 29100 nM; inhibition of ALKBH5 at the highest concentration measured (ALKBH5): no measurable inhibition; IC50 (ALKBH5; [3]): > 40000 nM
230 °C	–	–	–	–	–	COCCNc1ncc(-c2ccc3cc(OC)ccc3c2)cn1 [FTO-15, N-(2-methoxyethyl)-5-(6-methoxynaphthalen-2-yl)pyrimidin-2-amine]	precipitation in assay buffer (FTO): significant precipitation
230 °C	–	–	–	–	–	COCCNc1ncc(-c2ccc(OCc3ccccc3)cc2)cn1 [FTO-18, 5-(4-(benzyloxy)phenyl)-N-(2-methoxyethyl)pyrimidin-2-amine]	inhibition of ALKBH5 at the highest concentration measured (ALKBH5): no measurable inhibition; IC50 (ALKBH5; [3]): > 40000 nM
230 °C	–	–	–	–	–	COc1ncc(-c2cccc(OCc3ccccc3)c2)cn1 [FTO-3, 5-(3-(benzyloxy)phenyl)-2-methoxypyrimidine]	precipitation in assay buffer (FTO): significant precipitation

More lines, now with the values behind:

Structure (SMILES)	melting point	Ki (YTHDF1; read-out: Ki (pM) YTHDF1)	Ki (YTHDF1; read-out: Ki YTHDF1)	Ki (YTHDF2; [4])	Ki (YTHDF2; read-out: Ki (pM) YTHDF2)	Ki (YTHDF2; read-out: Ki YTHDF2)	further results
Nc1ncc(-c2cccc(Nc3ccccc3)c2)cn1 [FTO-9, 5-(3-(phenylamino)phenyl)pyrimidin-2-amine]	230 °C	–	–	–	–	–	selectivity between FTO and ALKBH5 (FTO): distinct preference towards ALKBH5 over FTO; IC50 (FTO; [2]): > 40000 nM and 43800 nM; IC50 (ALKBH5; [3]): 5200 nM
COc1ccc(CNc2ccc(CNC3CC3)cn2)c(OC)c1 [TR-YTH-02]	–	229 ± 57 pM	229 ± 57 pM	182 ± 69 pM	182 ± 69 pM	182 ± 69 pM	–
COCCNc1ncc(-c2ccc(CO)c(OC)c2)cn1 [FTO-20, (2-methoxy-4-(2-((2-methoxyethyl)amino)pyrimidin-5-yl)phenyl)methanol]	230 °C	–	–	–	–	–	selectivity between FTO and ALKBH5 (FTO): five-fold or higher; IC50 (FTO; [2]): 17200 ± 2900 nM; IC50 (ALKBH5; [3]): 90200 ± 7800 nM
CN(C)Cc1ccc(NCc2ccc(F)cc2)nc1 [TR-YTH-19]	–	391 ± 66 pM	391 ± 66 pM	107 ± 19 pM	107 ± 19 pM	107 ± 19 pM	–
Fc1ccnc(Nc2ccc(CNC3CC3)cn2)c1 [TR-YTH-15]	–	236 ± 51 pM	236 ± 51 pM	145 ± 33 pM	145 ± 33 pM	145 ± 33 pM	–
c1cncc(CNc2ccc(CNC3CC3)cn2)c1 [TR-YTH-05]	–	90 ± 10 pM	90 ± 10 pM	70 ± 12 pM	70 ± 12 pM	70 ± 12 pM	–
Fc1ccc(CNc2ccc(CNC3CC3)cn2)cc1F [TR-YTH-06]	–	285 pM	285 ± 154 pM	395 ± 51 pM	395 ± 51 pM	395 ± 51 pM	–
FC(F)(F)c1ccc(CNc2ccc(CNC3CC3)cn2)cc1 [TR-YTH-07]	–	162 ± 30 pM	162 ± 30 pM	77 ± 18 pM	77 ± 18 pM	77 ± 18 pM	–
Fc1ccc(CNc2ccc(CNC3CC3)cn2)cc1 [TR-YTH-08]	–	880 ± 194 pM	880 ± 194 pM	–	–	–	–
COc1ccc(CNc2ccc(CNC3CC3)cn2)cc1 [TR-YTH-01]	–	164 ± 21 pM	164 ± 21 pM	102 ± 15 pM	102 ± 15 pM	102 ± 15 pM	–
CC(Nc1ccc(CN(C)C)cn1)c1ccccc1 (stereo not drawn) [TR-YTH-18]	–	209 ± 27 pM	209 ± 27 pM	95 ± 13 pM	95 ± 13 pM	95 ± 13 pM	–
CN(Cc1ccc(C(F)(F)F)cc1)c1ccc(CNC2CC2)cn1 [TR-YTH-10]	–	615 ± 107 pM	615 ± 107 pM	106 ± 26 pM	106 ± 26 pM	106 ± 26 pM	–
O=C(O)N1CCC(F)(C2NCCS2)C1 (stereo not drawn) [ALK-03]	–	–	–	–	–	–	elogD ([1]; Table 700 compounds): 0.62; IC50 (FTO; [5]): > 40000 nM; IC50 (ALKBH5; [6]): > 40000 nM
Cc1ccc(Nc2ccc(CNC3CC3)cn2)cc1C [TR-YTH-12]	–	1420 ± 375 pM	1420 ± 375 pM	850 ± 115 pM	850 ± 115 pM	850 ± 115 pM	–
O=S(=O)(Nc1nccnc1O)c1ccc(OC(F)(F)F)cc1 [TR-ALKBH5-31]	–	–	–	–	–	–	elogD ([1]; Table 800 compounds): 2.33; IC50 (FTO; [7]): > 40000 nM; IC50 (ALKBH5; [8]): 13700 nM
O=S(=O)(Nc1cc(F)ccc1O)c1ccc(OC(F)(F)F)cc1 [TR-ALKBH5-30]	–	–	–	–	–	–	elogD ([1]; Table 800 compounds): 0.81; IC50 (FTO; [7]): > 40000 nM; IC50 (ALKBH5; [8]): 1000 nM
O=C1N[C@H](C(=O)O)CS1 [ALK-10]	–	–	–	–	–	–	elogD ([1]; Table 700 compounds): 0.54; IC50 (FTO; [5]): > 40000 nM; IC50 (ALKBH5; [6]): 1700 ± 1100 nM
COc1ccc(CNc2ccc(CNC3CC3)cn2)cc1OC [TR-YTH-03]	–	123 ± 6 pM	123 ± 6 pM	85 ± 26 pM	85 ± 26 pM	85 ± 26 pM	–
O=S(=O)(Nc1cccs1)c1ccc(OC(F)(F)F)cc1 [TR-ALKBH5-27]	–	–	–	–	–	–	elogD ([1]; Table 800 compounds): 0.36; IC50 (FTO; [7]): > 40000 nM; IC50 (ALKBH5; [8]): 2000 nM
O=S(=O)(Nc1cccc(O)c1)c1ccc(OC(F)(F)F)cc1 [TR-ALKBH5-39]	–	–	–	–	–	–	elogD ([1]; Table 800 compounds): 1.60; IC50 (FTO; [7]): > 40000 nM; IC50 (ALKBH5; [8]): 3100 nM
COc1ccc(CNc2ccc(CN(C)C)cn2)cc1 [TR-YTH-16]	–	214 ± 50 pM	214 ± 50 pM	179 ± 36 pM	179 ± 36 pM	179 ± 36 pM	–
COc1ncc(-c2ccc(CO)c(OC)c2)cn1 [FTO-6, (2-methoxy-4-(2-methoxypyrimidin-5-yl)phenyl)methanol]	230 °C	–	–	–	–	–	selectivity between FTO and ALKBH5 (FTO): five-fold or higher; IC50 (FTO; [2]): 13800 ± 2400 nM
O=S(=O)(Nc1ccc(Cl)c(C(F)(F)F)c1)c1ccc(OC(F)(F)F)cc1 [TR-ALKBH5-25]	–	–	–	–	–	–	elogD ([1]; Table 800 compounds): 1.50; IC50 (FTO; [7]): > 40000 nM; IC50 (ALKBH5; [8]): 1600 nM
Fc1cccc(F)c1CNc1ccc(CNC2CC2)cn1 [TR-YTH-09]	–	281 ± 9 pM	281 ± 9 pM	172 ± 49 pM	172 ± 49 pM	172 ± 49 pM	–
C[C@]1(Cn2ccnn2)C(C(=O)O)N2C(=O)C[C@H]2S1(=O)=O (stereo partly drawn) [ALK-08]	–	–	–	–	–	–	elogD ([1]; Table 700 compounds): 0.36; IC50 (FTO; [5]): > 40000 nM; IC50 (ALKBH5; [6]): 9900 ± 1300 nM
CC(Nc1ccc(CNC2CC2)cn1)c1ccccc1 (stereo not drawn) [TR-YTH-04]	–	129 ± 6 pM	129 ± 6 pM	100 ± 34 pM	100 ± 34 pM	100 ± 34 pM	–
COC(=O)C1COC(c2ccc(OC)c(Cl)c2)N1 (stereo not drawn) [ALK-23]	–	–	–	–	–	–	elogD ([1]; Table 700 compounds): 3.01; IC50 (FTO; [5]): > 40000 nM; IC50 (ALKBH5; [6]): 2800 ± 500 nM
COC(=O)C1COC(c2ccc(O)cc2)N1 (stereo not drawn) [ALK-13]	–	–	–	–	–	–	elogD ([1]; Table 700 compounds): 2.12; IC50 (FTO; [5]): > 40000 nM; IC50 (ALKBH5; [6]): 6700 ± 1800 nM
